Results on ten compounds are retold here after ChEMBL document CHEMBL3217413, “Chemical space as a source for new drugs” (Medchemcomm, 2010).

Each structure is given as a SMILES string. The source made the active and inactive calls. The rule behind the calls is not given here.

Test [1] is described as follows: Inhibition of estrogen receptor (unknown origin). Set-up: species or system Homo sapiens.
Test [2] has as its target Glutamate [NMDA] receptor. As to the kind of experiment: (§1) Inhibition of NMDA receptor glycine binding site (unknown origin). Also noted: species or system Homo sapiens.
The test system of a further test is Nucleic Acid. Nature of the test: Inhibition of TAT/TAR RNA interaction in HIV1. The format is nucleic-acid assay, Human immunodeficiency virus 1.
Test [3] has as its target Adrenergic receptor alpha-1 (Homo sapiens) (UniProt P35348+P25100+P35368). As to the kind of experiment: Inhibition of alpha1 adrenergic receptor (unknown origin) at 10 uM by radioligand displacement assay. Type of test: protein assay. Background: Displacement assays read how much labelled ligand stays bound in the presence of the test substance.
The subject of test [4] is Human immunodeficiency virus. Nature of the test: Antiviral activity against HIV. Type of test: functional, organism-based. Conditions: Human immunodeficiency virus 1.
Test [5] has as its target Glutamate [NMDA] receptor (Homo sapiens) (UniProt Q05586+Q12879+Q13224+O15399+O60391+Q14957+Q8TCU5). Described as §1.

On to `Oc1ccc(-c2cc3ccc(O)cc3s2)cc1` [RALOXIFENE CORE], for which 340 nM corresponded to half-maximal inhibition in test [1] (IC50).

Consider `C[C@H](N)CC(=O)NCC(=O)O`, for which the IC50 – broadly, the midpoint of a concentration-inhibition curve – in test [2] was 28 µM.

`CCOc1cccc(CN(c2cccc(F)c2)C2CCNCC2)c1` gave a half-inhibitory concentration (IC50) with Nucleic Acid of 500 µM.

In test [2], `CCNCCC(=O)NCCC(=O)O` returned an IC50 of 60 µM.

The compound `NC[C@@H]1NC(=O)CNC1=O` yielded an IC50 in test [2] of 370 µM.

As to `NCCCC(=O)NCC(=O)O`, the IC50 in test [2] was found to be 61 µM.

For `OCc1ccccc1C1CCCNC1` (stereo not given), the inhibition (commonly the drop in the measured response relative to a control, in per cent) in test [3] was above 50%.

`C[C@@H](NCCN)C(=O)O`: the IC50 in test [2] came to 112 µM.

`CC(C)n1c(O)nnc1Sc1cccc(C(F)(F)F)c1` registered an IC50 in test [4] of 80 µM. That is a double-digit micromolar value.

In the case of `NC[C@H]1CNC(=O)C(=O)N1`, the inhibition result in test [5] was “inactive”.
